In patent US6846489B1, “Vaccines containing a saponin and a sterol” (priority 1995, dated 2005):

Legend:
erythrocytes = test: Lytic activity of QS21 on erythrocytes (hemolysis); format: cell-based; settings: for lytic activity: expressed as μg QS21 equivalent for the same hemolysis, 5 μg QS21 (or digitonin)
Method: When QS21 is added to erythrocytes, they lyse them releasing hemoglobin. This lytic activity can also be measured using liposomes which contain cholesterol in their membrane and an entrapped fluorescent dye, carboxyfluorescein—as the liposomes are lysed the dye is released which can be monitored by fluorescence spectroscopy.
If the QS21 first associates with cholesterol in liposomes it is no longer lyric towards cells or other liposomes.
In the presence of phospholipids the cholesterol resides within the phospholipid bilayer which can form a stable suspension of vesicles called liposomes. To avoid the requirement to add phospholipids a soluble derivative was tried.

[1] = Binding of the liposome-QS21 complex to alum; format: physicochemical; settings: incubated with alum (Al(OH)3) in PBS
Method: QS21 was incubated with neutral liposomes containing excess cholesterol as well as radioactive cholesterol and then incubated with alum (Al(OH)3) in PBS.

[2] = Lytic activity of QS21 on fluorescent liposomes (carboxyfluorescein release); settings: fluorescent liposomes without cholesterol in their membrane
Method: When QS21 is added to erythrocytes, they lyse them releasing hemoglobin. […]
The same holds true using fluorescent liposomes to measure the lytic activity.

[3] = format: in vivo, rabbits
From the text: 1.6 Reactogenicity intra-muscularly in rabbits
Since the CPK increase is a measure of muscle damage this indicates decreased muscle damage and is confirmed by the histopathology.

HSV gD = settings: antigen gD (5 μg)
[4] = Base-mediated hydrolysis of QS21 monitored by reverse-phase HPLC; format: physicochemical; settings: pH 9, 37° C.
From the text: This hydrolysis can be monitored by measuring the decrease in the peak corresponding to QS21 on reverse-phase HPLC.

| Compound | lytic activity on erythrocytes (erythrocytes; QS21 incubated with liposomes containing cholesterol before adding to erythrocytes, 1:1 ratio cholesterol to QS21) | lytic activity (erythrocytes) [µg] | binding to alum in PBS [1] | lysis of fluorescent liposomes [2] | toxicity in rabbits (by CPK) ([3]; QS21 associated with cholesterol-containing liposomes, Chol:QS21=6:1) | CPK Day0 Mean ([3]; mean of 5 rabbits) [U.I./L] | CPK Day1 Mean ([3]; mean of 5 rabbits) [U.I./L] | CPK Day3 Mean ([3]; mean, value in parentheses left out) [U.I./L] | IgG1 %, isotypes 7 days post II (HSV gD) [%] | IgG1, isotypes 7 days post II (HSV gD) [µg/mL] | IgG2a %, isotypes 7 days post II (HSV gD) [%] | IgG2a, isotypes 7 days post II (HSV gD) [µg/mL] | IgG2b %, isotypes 7 days post II (HSV gD) [%] | IgG2b, isotypes 7 days post II (HSV gD) [µg/mL] | IgG 7 post II (GMT) (HSV gD) | IgG 14 post II (GMT) (HSV gD) | hydrolysis of the QS21 ([4]; 16 hours, liposomes containing cholesterol added 2:1 (chol:QS21 w/w)) | QS21 degraded ([4]; 16 hours, liposomes containing cholesterol, ratio 1:1) [%] | QS21 hydrolysed ([4]; within 16 hours, QS21 alone) [%] | reduction in the lytic activity of QS21 (erythrocytes; 2000 fold excess (w/w) over QS21) |
| --- | --- | --- | --- | --- | --- | --- | --- | --- | --- | --- | --- | --- | --- | --- | --- | --- | --- | --- | --- | --- |
| QS21 | no lytic activity is detected | 5 | neither neutral liposomes nor QS21 bind to alum | no lysis | non-toxic | 1369 | 6261 | 1212 | 66 | 156 | 28 | 67 | 6 | 14 | 3468 | 4132 | no hydrolysis | 10 | 90 |  |
| C[C@@H]1CC[C@@]2(OC1)O[C@H]1[C@@H](O)[C@H]3[C@@H]4CC[C@H]5C[C@@H](O[C@@H]6O[C@H](CO)[C@H](O[C@@H]7O[C@H](CO)[C@@H](O)[C@H](O[C@@H]8OC[C@@H](O)[C@H](O)[C@H]8O)[C@H]7O[C@@H]7O[C@H](CO)[C@H](O)[C@H](O[C@@H]8O[C@H](CO)[C@@H](O)[C@H](O)[C@H]8O)[C@H]7O)[C@H](O)[C@H]6O)[C@H](O)C[C@]5(C)[C@H]4CC[C@]3(C)[C@H]1[C@@H]2C [digitonin] |  | 5 |  |  |  |  |  |  |  |  |  |  |  |  |  |  |  |  |  |  |
| Polyoxyethanyl-cholesterol sebacate |  |  |  |  |  |  |  |  |  |  |  |  |  |  |  |  |  |  |  | no reduction |
